Source: patent US20140031325A1, “COMBINATION THERAPY WITH LENALIDOMIDE AND A CDK INHIBITOR FOR TREATING MULTIPLE MYELOMA” (Celgene Corporation, priority 2010, published 2014)

How the values were obtained:
[1] = tested on: newly diagnosed multiple myeloma; assay: Combination therapy of lenalidomide and dexamethasone in patients with newly diagnosed multiple myeloma; type: in vivo
Text: Most adverse events were manageable with dose modification. The combination therapy is an effective first-line therapy for the treatment of patients with newly diagnosed multiple myeloma.

multiple myeloma = assay: Combination therapy of lenalidomide and CDK4/CDK6 inhibitor (PD 0332991) in patients with multiple myeloma; type: in vivo
Protocol: Lenalidomide and a CDK4/CDK6 inhibitor control tumor expansion and enhance tumor killing in the treatment of multiple myeloma. Patients with multiple myeloma are treated with lenalidomide (Revlimid®, 5 to 25 mg/day orally on days 1-21 in a 28 days cycle) and a CDK4/CDK6 inhibitor (PD 0332991, 25 to 150 mg/day orally on days 1-21 in a 28 days cycle). Maintenance treatment are continued until the disease progression.

[2] = lenalidomide in combination with dexamethasone, newly diagnosed multiple myeloma

`Nc1cccc2c1CN(C1CCC(=O)NC1=O)C2=O` (stereo not drawn) [lenalidomide, 3-(4-amino-1-oxo-1,3-dihydro-isoindol-2-yl)-piperidine-2,6-dione] was tested, and the “overall response rate and complete response” value [1, 2] was “high overall response rate and complete response”, the “progression-free survival at 1 year” value [1, 2] was “significantly increased progression-free survival at 1 year” and the tolerability [1, 2] was “well tolerated”. The patient response ([1]; newly diagnosed multiple myeloma patients, lenalidomide 25 mg/day days 1-21 of 28-day cycle in combination with dexamethasone 40 mg/day (days 1-4, 9-12, 17-20 or days 1, 8, 15, 22)) was “most of patients responded”, the “activity of the therapy in multiple myeloma patients” value (multiple myeloma; Revlimid 5 to 25 mg/day orally days 1-21 of 28-day cycle in combination with PD 0332991 25 to 150 mg/day orally days 1-21) was “highly active” and the tolerability (multiple myeloma; Revlimid 5 to 25 mg/day orally in combination with PD 0332991 25 to 150 mg/day orally, multiple myeloma patients) was “well tolerated”.
